Patent publication US8252796B2, “1-butyl-2-hydroxyaralkyl piperazine derivatives and the uses as anti-depression medicine thereof” (CSPC Zhonggi Pharmaceutical Technology (Shijiazhuang) Co. …, priority 2008, dated 2012)
Read-outs that look alike come from different tables or passages of the source.

How the values were obtained:
[1] = molecular target: T1, reuptake of 5-HT by brain synaptosomes (prefrontal cortex) (Rattus norvegicus, UniProt P31652); assay: Inhibition of [3H]5-HT reuptake by rat brain synaptosomes, single concentration (Example 35); assay type: biochemical; conditions: test substance 10 μmol/L; inhibitory rate of 0.1 mM venlafaxine taken as 100%
T1 construct: from tissue; host or cells: rat prefrontal cortex synaptosomes
T1 sequence (P31652 whole entry): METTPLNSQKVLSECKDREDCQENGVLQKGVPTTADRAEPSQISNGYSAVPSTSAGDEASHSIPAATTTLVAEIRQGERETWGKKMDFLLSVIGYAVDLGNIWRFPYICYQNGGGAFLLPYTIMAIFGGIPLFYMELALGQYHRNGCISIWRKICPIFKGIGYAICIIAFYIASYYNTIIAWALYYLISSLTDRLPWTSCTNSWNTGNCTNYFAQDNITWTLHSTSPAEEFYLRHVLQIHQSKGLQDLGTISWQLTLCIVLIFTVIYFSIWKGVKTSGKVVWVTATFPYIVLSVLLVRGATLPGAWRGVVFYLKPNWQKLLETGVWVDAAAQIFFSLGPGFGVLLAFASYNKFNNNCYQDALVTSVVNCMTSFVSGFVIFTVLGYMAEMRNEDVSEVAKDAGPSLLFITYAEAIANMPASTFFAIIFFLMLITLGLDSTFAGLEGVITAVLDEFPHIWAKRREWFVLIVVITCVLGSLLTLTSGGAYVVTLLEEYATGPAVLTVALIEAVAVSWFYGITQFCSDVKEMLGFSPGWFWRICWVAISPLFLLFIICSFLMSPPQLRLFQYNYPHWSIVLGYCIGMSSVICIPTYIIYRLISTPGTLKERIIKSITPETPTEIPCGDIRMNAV
Experimental: (§1) Studies on the reuptake of monoamine neurotransmitters by brain synaptosomes was performed, which is a currently important mean adopted in the worldwide in pharmacological studies of central nervous. This method can not only be used to study the action mechanism of a drug, but also be used for screening new drugs acting by this mechanism.
(§2) Male SD rats were sacrificed by cervical dislocation and then the brains thereof were taken out rapidly by decollation and placed on ice. Related rain tissues (for [^3H]5-HT and [^3H]NA reuptake experiment, prefrontal cortex was taken; for [^3H]DA reuptake experiment, striatum was taken) were separated and weighed. 10 times (V/W) of 0.32 mol/L ice-cold sucrose solution was added and was homogenized electrically with glass-teflon. The homogenate was centrifugated at 4° C. at 1000 g×10 min. Then the supernatant was taken and centrifugated at 4° C. at 17000 g×20 min. The precipitation was suspended in 30 volume of KRH Buffer (125 mM NaCl, 4.8 mM KCl, 1.2 mM CaCl2, 1.2 mM MgSO4, 1.0 mM KH2PO4, 22 mM NaHCO3, 25 mM HEPES, 10 mM Glucose, 10 μM Pargyline, 0.2 mg/ml Ascorbic Acid) and then was preserved in an ice bath for use. (for NA reuptake experiment, the cortex needed was suspended in 20 volume of KRH Buffer)
(§3) Stock solution of the test substance was thawed immediately before use and diluted with KBH Buffer to 100 μmol/L, 50 μl thereof was added in 500 μl of total reaction system, and the final concentration was 10 μmol/L. Then 50 μl suspended synaptic prepared above was added and mixed evenly, incubated in water bath for 30 min at 37° C. Then […] [^3H] 5-HT (50 nmol/L [^3H]DA or […] [^3H]NA) was added. After incubated at 37° C. for 10 min, the reaction system was immediately taken out and the reaction was stopped by adding 2 ml of ice-cold 150 mmol/L Tris-HCl buffer solution. The samples were collected on the circular fiberglass membrane by vacuum filtration, and the membrane was washed 3 times with 3 ml of ice-cold Tris-HCl buffer solution. The filtration membrane was removed, baked for 15 min in a far-infrared oven and placed into an EP tube. 1.5 ml scintillation fluid was added overnight and was tested by liquid scintillation counter. For the solvent control total binding tube and the non-specific binding tube, no test substance was added; for the total binding tube, 50 μl solvent was added.

[2] = molecular target: T2, reuptake of NA by brain synaptosomes (prefrontal cortex) (Rattus norvegicus, UniProt Q9WTR4); assay: Inhibition of [3H]NA reuptake by rat brain synaptosomes, single concentration (Example 35); assay type: biochemical; conditions: test substance 10 μmol/L; inhibitory rate of 0.1 mM venlafaxine taken as 100%
T2 construct: from tissue; host or cells: rat prefrontal cortex synaptosomes
T2 sequence (Q9WTR4 1-597): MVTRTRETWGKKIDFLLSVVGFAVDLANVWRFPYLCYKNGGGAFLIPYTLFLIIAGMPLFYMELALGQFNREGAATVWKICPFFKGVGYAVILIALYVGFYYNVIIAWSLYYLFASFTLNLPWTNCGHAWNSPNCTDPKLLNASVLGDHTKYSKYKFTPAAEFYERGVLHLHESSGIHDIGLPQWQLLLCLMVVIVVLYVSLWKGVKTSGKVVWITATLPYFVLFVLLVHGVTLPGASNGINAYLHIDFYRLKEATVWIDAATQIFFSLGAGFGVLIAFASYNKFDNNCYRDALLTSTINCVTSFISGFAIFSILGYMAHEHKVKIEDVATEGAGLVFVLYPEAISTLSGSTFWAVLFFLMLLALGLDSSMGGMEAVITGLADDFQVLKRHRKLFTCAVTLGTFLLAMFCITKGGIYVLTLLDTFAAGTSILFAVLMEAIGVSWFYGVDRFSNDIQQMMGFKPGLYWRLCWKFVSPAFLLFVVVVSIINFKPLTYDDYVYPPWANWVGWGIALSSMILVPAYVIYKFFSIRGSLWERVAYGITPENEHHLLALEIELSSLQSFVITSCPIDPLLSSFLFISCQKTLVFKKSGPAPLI
Experimental: as §1, §2, §3

[3] = molecular target: T3, reuptake of DA by brain synaptosomes (striatum) (Rattus norvegicus, UniProt P23977); assay: Inhibition of [3H]DA reuptake by rat brain synaptosomes, single concentration (Example 35); assay type: biochemical; conditions: test substance 10 μmol/L; inhibitory rate of 0.1 mM 6-hydroxy DA taken as 100%
T3 construct: from tissue; host or cells: rat striatum synaptosomes
T3 sequence (P23977 whole entry): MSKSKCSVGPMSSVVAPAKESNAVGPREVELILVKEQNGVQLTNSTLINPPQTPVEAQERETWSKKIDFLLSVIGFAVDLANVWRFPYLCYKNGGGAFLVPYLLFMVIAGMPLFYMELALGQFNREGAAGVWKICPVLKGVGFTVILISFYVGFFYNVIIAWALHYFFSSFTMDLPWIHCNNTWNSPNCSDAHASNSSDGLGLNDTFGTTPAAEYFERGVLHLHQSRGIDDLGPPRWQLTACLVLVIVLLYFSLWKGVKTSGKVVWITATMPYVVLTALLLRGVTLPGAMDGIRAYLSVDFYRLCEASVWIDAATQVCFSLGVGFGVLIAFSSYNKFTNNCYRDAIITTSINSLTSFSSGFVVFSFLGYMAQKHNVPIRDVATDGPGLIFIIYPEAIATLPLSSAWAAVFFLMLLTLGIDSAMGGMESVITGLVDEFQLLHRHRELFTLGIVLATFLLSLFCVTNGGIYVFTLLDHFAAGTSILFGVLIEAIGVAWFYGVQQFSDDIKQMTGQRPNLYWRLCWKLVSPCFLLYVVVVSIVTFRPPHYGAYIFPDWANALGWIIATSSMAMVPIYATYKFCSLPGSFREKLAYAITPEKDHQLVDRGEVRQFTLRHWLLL
Experimental: as §1, §2, §3

[4] = Pharmacokinetics and bioavailability, single i.v. and oral administration in SD rat; assay type: in vivo; conditions: male, plasma; for Cmax: read-out: Cmax; for AUC (0-t): read-out: AUC (0-t); for half-life: read-out: half life (T½) (converted)
Experimental: To study the pharmacokinetics parameters and the bioavailability of VIII-9, VIII-10 and SIPI5286 when single i.v. and oral administration in SD rat
Eighteen male rats were randomized into 6 groups and were administrated with the three compounds via i.v. and oral route, respectively. The dosage was 10 mg/kg (IV) and 50 mg/kg (PO). The test substance was dissolved in the solution of 5% DMSO/95% HP-β-CD aqueous solution (30%), and were administrated to the animal via i.v. and oral route. Blood plasma was collected at a serial of time points after i.v. and oral administration, and the blood drug concentrations were determined by LC/MS/MS. Then the pharmacokinetics parameters and the bioavailability were calculated based on the blood drug concentrations.

ICR mice = assay: Mice Forced Swimming Test (in vivo antidepression activity); conditions: for swimming test: immobility time: n = 12, mean±SD
[5] = molecular target: T4, reuptake of [3H]5-HT by prefrontal cortex synaptosomes (Rattus norvegicus, UniProt P31652); assay: IC50 for inhibiting reuptake of [3H]5-HT by brain synaptosomes (Example 36); assay type: biochemical; conditions: mean, n = 3~4
T4 construct: from tissue; host or cells: rat prefrontal cortex synaptosomes
T4 sequence (P31652 whole entry): as the sequence (P31652 whole entry) above
Experimental: as §2, with “The precipitation was suspended in 30 volume of KRH Buffer (125 mM NaCl, 4.8 mM KCl, 1.2 mM CaCl2, 1.2 mM MgSO4, 1.0 mM KH2PO4, 22 mM NaHCO3, 25 mM HEPES, 10 mM Glucose, 10 μM Pargyline, 0.2 mg/ml Ascorbic Acid) and then was preserved in an ice bath for use.” left out
(§4) The compounds were used for the studies on inhibition effect (IC50) on reuptake of [^3H]5-HT/NA/DA. At least 5 concentrations each time were settled for each test compound. Each concentration was determined by the average of double twin tubes and the test was repeated for more than 3 times. A series of concentrations of the compounds were prepared by gradient dilution before use. 50 μl thereof was added in total reaction system. Then 50 μl suspended synaptic membrane was added and mixed evenly, incubated in water bath at 37° C. for 30 min. Then 10 nmol/L [^3H] 5-HT (or 50 nmol/L [^3H]DA or 40 nmol/L [^3H]NA) was added and incubated in water bath at 37° C. for 10 min (for [^3H]NA, incubated for 5 min). For the [^3H]5-HT reuptake experiment, 50 μL of fluoxetine (100 μmol/L) was added to the non-specific binding tube; for the [^3H]DA reuptake experiment, 50 μL of cocaine (600 μmol/L) was added to the non-specific binding tube; for the [^3H]NA reuptake experiment, 50 μL of desipramine (100 μmol/L) was added to the non-specific binding tube; for the solvent control, solvent was added to the total binding tube, but no test compound added.
(§5) Sigmoidal curve fitting was performed for the data obtained from all of the test drugs by Origin 6.1, and the IC50 value was calculated.

[6] = molecular target: T5, reuptake of [3H]NA by prefrontal cortex synaptosomes (Rattus norvegicus, UniProt Q9WTR4); assay: IC50 for inhibiting reuptake of [3H]NA by brain synaptosomes (Example 36); assay type: biochemical; conditions: mean, n = 3~4
T5 construct: from tissue; host or cells: rat prefrontal cortex synaptosomes
T5 sequence (Q9WTR4 1-597): as the sequence (Q9WTR4 1-597) above
Experimental: as §2
(§6) 1. Preparation of Rat Brain Synaptosomes (the Same as Example 35)
as §4, §5

[7] = molecular target: T6, reuptake of [3H]DA by striatum synaptosomes (Rattus norvegicus, UniProt P23977); assay: IC50 for inhibiting reuptake of [3H]DA by brain synaptosomes (Example 36); assay type: biochemical; conditions: mean, n = 3~4
T6 construct: from tissue; host or cells: rat striatum synaptosomes
T6 sequence (P23977 whole entry): as the sequence (P23977 whole entry) above
Experimental: as §2, §6, §4, §5

For `CCCC[C@@H]([C@H](O)c1ccc2c(Cl)c(OC)ccc2c1)N1CCN(c2ccccc2OC)CC1` (racemic) [VIII-3, (1SR,2RS)-N^1-o-methoxylphenyl-N^4-[1-butyl-2-(5′-chloro-6′-methoxyl-2′-naphthyl)hydroxyethyl]piperazine], the “Inhibition on the reuptake of 5-HT(%)” value [1] was 65.1%, the “inhibition on the reuptake of NA(%)” value [2] was 144% and the “inhibition on the reuptake of DA(%)” value [3] was 96%.

For `CCCC[C@@H]([C@@H](O)c1ccc2c(Cl)c(OC)ccc2c1)N1CCN(c2ccccc2OC)CC1` (racemic) [VIII-4, (1SR,2SR)-N^1-o-methoxylphenyl-N^4-[1-butyl-2-(5′-chloro-6′-methoxyl-2′-naphthyl)hydroxyethyl]piperazine], the “Inhibition on the reuptake of 5-HT(%)” value [1] was 23%, the “inhibition on the reuptake of NA(%)” value [2] was 146.5% and the “inhibition on the reuptake of DA(%)” value [3] was 68%.

For `CCCC[C@H]([C@@H](O)c1ccc2c(Cl)c(OC)ccc2c1)N1CCN(C(c2ccccc2)c2ccccc2)CC1` (racemic) [VIII-19, (1SR,2RS)-N^1-benzhydryl-N^4-[1-butyl-2-(5′-chloro-6′-methoxyl-2′-naphthyl)hydroxyethyl]piperazine], the “Inhibition on the reuptake of 5-HT(%)” value [1] was 73.4%, the “inhibition on the reuptake of NA(%)” value [2] was 103.6% and the “inhibition on the reuptake of DA(%)” value [3] was 95%.

For `CCCC[C@H]([C@H](O)c1ccc2c(Cl)c(OC)ccc2c1)N1CCN(C(c2ccccc2)c2ccccc2)CC1` (racemic) [VIII-20, (1SR,2SR)-N^1-benzhydryl-N^4-[1-butyl-2-(5′-chloro-6′-methoxyl-2′-naphthyl)hydroxyethyl]piperazine], the “Inhibition on the reuptake of 5-HT(%)” value [1] was 0%, the “inhibition on the reuptake of NA(%)” value [2] was 78% and the “inhibition on the reuptake of DA(%)” value [3] was 57%.

With `CCCC[C@H]([C@@H](O)c1ccc2c(Cl)c(OC)ccc2c1)N1CCN(CC=Cc2ccccc2)CC1` (racemic) [VIII-21, (1SR,2RS)-N^1-cinnamyl-N^4-[1-butyl-2-(5′-chloro-6′-methoxyl-2′-naphthyl)hydroxyethyl]piperazine] the “Inhibition on the reuptake of 5-HT(%)” value [1] was 81%, the “inhibition on the reuptake of NA(%)” value [2] was 87.5% and the “inhibition on the reuptake of DA(%)” value [3] was 90%.

In the case of `CCCC[C@@H]([C@@H](O)c1ccc2c(Cl)c(OC)ccc2c1)N1CCN(CC=Cc2ccccc2)CC1` (racemic) [VIII-22, (1SR,2SR)-N^1-cinnamyl-N^4-[1-butyl-2-(5′-chloro-6′-methoxyl-2′-naphthyl)hydroxyethyl]piperazine], the “Inhibition on the reuptake of 5-HT(%)” value [1] is reported as 82.3%, the “inhibition on the reuptake of NA(%)” value [2] is reported as 78.9% and the “inhibition on the reuptake of DA(%)” value [3] is reported as 94%.

With `NCCc1cc(O)c(O)cc1O` [6-hydroxy DA, reference compound] the “inhibition on the reuptake of DA(%)” value [3] was 100%.

`COc1ccc2cc([C@@H](O)[C@H](C)N3CCN(Cc4ccccc4)CC3)ccc2c1Cl` [SIPI5286, reference compound] gave a Cmax ([4]; iv, i.v. 10 mg/kg, (5 min)) of 13.9 µg/mL, an AUC (0-t) ([4]; iv, i.v. 10 mg/kg) of 12.6 µg·h/mL and a half-life ([4]; iv, i.v. 10 mg/kg) of 3.41 h. It also gave a bioavailability ([4]; oral 50 mg/kg vs i.v. 10 mg/kg, read-out: bioavailability) of 51.6%, an AUC (0-t) ([4]; oral 50 mg/kg) of 30.3 µg·h/mL and a Cmax ([4]; oral 50 mg/kg) of 6.86 µg/mL. The Tmax ([4]; oral 50 mg/kg, read-out: Tmax) was 0.5 h, the half-life ([4]; oral 50 mg/kg) was 5.71 h and the ED50 (ICR mice; Mus musculus, single oral administration) was 28.9 mg/kg. The “swimming test: immobility time” value (ICR mice; one week oral administration, 10.4 mg/kg) was 123.8 ± 21.68 s, the “swimming test: immobility time” value (ICR mice; one week oral administration, 17.3 mg/kg) was 102.9 ± 37.94 s and the “swimming test: immobility time” value (ICR mice; one week oral administration, 28.8 mg/kg) was 97.2 ± 28.33 s. For the same molecule, the “swimming test: immobility time” value (ICR mice; one week oral administration, 48 mg/kg) was 95.5 ± 27.0 s, the “swimming test: immobility time” value (ICR mice; single oral administration, 10.4 mg/kg) was 107.9 ± 37.19 s and the “swimming test: immobility time” value (ICR mice; single oral administration, 17.3 mg/kg) was 105.4 ± 33.11 s. For the same molecule, the “swimming test: immobility time” value (ICR mice; single oral administration, 28.8 mg/kg) was 92.1 ± 23.11 s, the “swimming test: immobility time” value (ICR mice; single oral administration, 48 mg/kg) was 90.1 ± 26.02 s and the IC50 [5] was 0.012 µM. The IC50 [6] was 0.185 µM and the IC50 [7] was 1.15 µM.

In the case of `COc1ccc2cc(C(O)C(C)N3CCN(Cc4ccccc4)CC3)ccc2c1Cl` (centres unmarked) [SIPIyy24, N^1-benzyl-N^4-[1-methyl-2-(5′-chloro-6′-methoxyl-2′-naphthyl) hydroxyethyl]piperazine, reference compound], the IC50 [5] is reported as 0.2 µM, the IC50 [6] is reported as 1 µM and the “IC50 [^3H]DA reuptake” value [7] is reported as “No activity detected”.

For `COc1ccc(C(CN(C)C)C2(O)CCCCC2)cc1` (centres unmarked) [venlafaxine, reference compound], the “inhibition on the reuptake of NA(%)” value [2] was 100% and the “swimming test: immobility time” value (ICR mice; one week oral administration, 50 mg/kg) was 83.5 ± 29.0 s.
